Data taken from patent US12514851B2, “Use of 2,3,5-substituted thiophene compound for preventing, ameliorating, or treating ovarian cancer” (PHAROS IBIO CO., LTD, priority 2020, dated 2026).

Experiments:
Assay type in all cases: cell-based
[1] = system: SK-OV-3 ovarian cancer cell line; assay: Inhibitory activity against ovarian cancer cell lines, agents alone (Celltiter glo cell viability); details: SK-OV3
Procedure: (§5) In 100-mm culture dishes (SPL) at 37° C. under 5% CO2, the CAOV3 ovarian cancer cell line was cultured using DMEM (Dulbeco's Modified Eagle Medium), and the OVCAR3, SK-OV-3 and SW626 ovarian cancer cell lines were cultured using RPMI1640 medium. Thereafter, each cell line was diluted to 3,000 cells/80 μl using PBS (phosphate-buffered saline) (Biosesang).
(§6) After incubation, the cells were counted using a Celltiter glo assay kit (Promega), and cell viability was measured by expressing the cell count as a percentage relative to that of a control group not treated with PHI-101 or the anticancer agent.

[2] = system: CAOV3 ovarian cancer cell line; assay: as above
Procedure: as §5, §6

[3] = system: SW626 ovarian cancer cell line; assay: as above
Procedure: as §5, §6

[4] = system: OVCAR3 ovarian cancer cell line; assay: as above
Procedure: as §5, §6

[5] = system: TP53-mutant ovarian cancer cell lines; assay: Selective inhibitory activity against TP53-mutant ovarian cancer cell lines; details: TP53-mutant versus non-mutant ovarian cancer cell lines (Table 2)
Description: In order to evaluate the selective inhibitory activity of PHI-101, the characteristics of each cell line and the inhibitory activity of PHI-101 against ovarian cancer cell lines were investigated as shown in Table 2 below.

[6] = system: CAOV3 ovarian cancer cell line; assay: Synergistic effect of PHI-101 and olaparib (Celltiter glo viability, Combination Index by CalcuSyn); details: Homo sapiens, Caov-3, Table 7, combination index experiment, 72 hours
Procedure: (§1) In order to establish the concentrations of PHI-101 and olaparib which are in an integer ratio in the combination index experiment, based on the IC50 value of olaparib relative to the relatively low IC50 value (1×) of PHI-101, the integer ratio between PHI-101 and olaparib was obtained as shown in Table 4 below.
(§2) Each prepared 10× solution was serially diluted at 1:2 in each of six E-tubes, each containing 150 μl of medium. Then, a PHI-101 96-well plate (FIG. 4) and an olaparib 96-well plate (FIG. 5) were prepared separately, and 30 μl of the serially diluted PHI-101 or olaparib was dispensed into each well of the corresponding plate. 30 μl of medium was dispensed into each well not containing the substance.
(§3) Then, each well was incubated at 37° C. under 5% CO2 for 72 hours, and each experiment was performed in triplicate.
(§4) Next, using the CalcuSyn software and based on the Combination Index (CI) shown in Table 8, the CI for each ovarian cancer cell line depending on the treatment concentrations of PHI-101 and olaparib was calculated, and whether there was synergism between the substances was evaluated.

[7] = system: SK-OV3 ovarian cancer cell line; assay: as above; details: Homo sapiens, SK-OV-3, Table 7, combination index experiment, 72 hours
Procedure: as §1, §2, §3, §4

[8] = system: OVCAR3 ovarian cancer cell line; assay: as above; details: Homo sapiens, OVCAR-3, Table 7, combination index experiment, 72 hours
Procedure: as §1, §2, §3, §4

[9] = Homo sapiens, SK-OV-3, agent alone, 72 hours
[10] = Homo sapiens, Caov-3, agent alone, 72 hours
[11] = Homo sapiens, agent alone, 72 hours
[12] = Homo sapiens, OVCAR-3, agent alone, 72 hours

Compound	IC50 [1, 9]	IC50 [2, 10]	IC50 [3, 11]	IC50 [4, 12]	IC50 [6]	IC50 [7]	IC50 [8]	further results
CC(=O)O[C@H]1C(=O)[C@@]2(C)[C@H]([C@H](OC(=O)c3ccccc3)[C@]3(O)C[C@H](OC(=O)[C@H](O)[C@@H](NC(=O)c4ccccc4)c4ccccc4)C(C)=C1C3(C)C)[C@]1(OC(C)=O)CO[C@@H]1C[C@@H]2O [Paclitaxel, paclitaxel]	114 µM	3.6 µM	29.8 µM	5.7 µM				
N.N.[Cl][Pt][Cl] [Cisplatin, cisplatin]								IC50 ([1]; agent alone, 72 hours): 12.3 µM; IC50 ([2]; agent alone, 72 hours): 3.5 µM; IC50 ([3]; agent alone, 72 hours): 8 µM; IC50 ([4]; agent alone, 72 hours): 4.4 µM
COc1cccc(OCCCN)c1-c1cc(Nc2cnc(C#N)cn2)n[nH]1 [Prexasertib, prexasertib]				6.3 µM				
CC[C@@]1(O)C(=O)OCc2c1cc1n(c2=O)Cc2cc3c(CN(C)C)c(O)ccc3nc2-1 [Topotecan, topotecan]	3.7 µM	3.9 µM	14.4 µM	8.3 µM				
NC(=O)Nc1cc(C#Cc2cccc(F)c2)sc1C(=O)N[C@H]1CCCNC1 [PHI-101, (S)-5-((3-fluorophenyl)ethynyl)-N-(piperidin-3-yl)-3-ureido thiophene-2-carboxamide]	5.6 µM	0.5 µM	3.6 µM	2.7 µM	0.873 µM	4.39 µM	3.5 µM	selective inhibitory activity [5]: better inhibitory activity against the TP53-mutant ovarian cancer cell lines; IC50 ([1]; Homo sapiens, SK-OV-3, Table 4, values used to establish treatment starting concentrations): 5.6 µM; IC50 ([2]; Homo sapiens, Caov-3, Table 4, values used to establish treatment starting concentrations): 0.523 µM; IC50 ([3]; Homo sapiens, Table 4, values used to establish treatment starting concentrations): 3.64 µM; IC50 ([4]; Homo sapiens, OVCAR-3, Table 4, values used to establish treatment starting concentrations): 2.76 µM
O=C(c1cc(Cc2n[nH]c(=O)c3ccccc23)ccc1F)N1CCN(C(=O)C2CC2)CC1 [Olaparib, olaparib]	114 µM	59.7 µM	147 µM	96.5 µM	59.7 µM	114 µM	96.5 µM	
